Common to all, as to format: in vivo
In assay [1] the test system is Ambrosia artemisiifolia. Nature of the assay: LTP post-emergence greenhouse test. The note with it: Dosage 2000 g/ha.
Assay [2] deals with Amaranthus tuberculatus. Nature of the assay: LTP post-emergence greenhouse test. The note with it: Dosage 2000 g/ha. As for the experimental part: A basic panel of eight weed species (Table 3) sowed in 4×4×7 cm plastic pots containing a garden mix (klasmann). Each specie was sowed in a separate pot. In each pot, 10-15 seeds were sowed according to the specie viability. Timing of application determined at a 1-2 true leaf stage. The plants grew for 30 days in a controlled greenhouse (26±2° C. day, 20±2° C. night). Hood irrigation (tap water+Shefer 5:3:8 8 mM) was given at a 50% water content by weight. Two days before application, the tested plants thinned down to three plants per pot. Compounds were soluble in water (DDW), and commercial herbicide control was soluble in formulation B (Table 4). Before application, 1% (v/v) crop oil and 0.02% (v/v) surfactant (Tergitol™ 15-S-7) were added to the solution. […] Plants were evaluated at 3 time points (4, 8, 12 days after application (DAA)). At each time point, visual phenotyping was recorded using a scale of 0-6 (0: no visible effect, 6: maximum effect). […]
Post-emergence advanced wide panel experiment included 24 weed species (Table 5). […] Visual phenotyping was recorded at 4, 11, 17 and 20 DAA using a scale of 0-6 (0: no visible effect, 6: maximum effect). […] Statistical analysis for visual phenotyping determined by a median value of ≥3.5 and Fisher test (pval≤0.05). Statistical analysis for dry weight determined by % inhibition ≥50 and T test (pval≤0.05), as well as Wilcox test (pval≤0.05).

Assay [3] deals with Phalaris paradoxa. Nature of the assay: LTP post-emergence greenhouse test. The note with it: Dosage 2000 g/ha.
The test system of assay [4] is Conyza canadensis. Nature of the assay: LTP post-emergence greenhouse test. The note with it: Dosage 2000 g/ha.
Assay [5] concerns Setaria viridis. Nature of the assay: LTP post-emergence greenhouse test. The note with it: Dosage 2000 g/ha.
Assay [6] deals with Echinochloa colon. The assay can be described thus: LTP post-emergence greenhouse test. The note with it: Dosage 2000 g/ha.
Assay [7] deals with Abutilon theophrasti. Nature of the assay: LTP post-emergence greenhouse test. The note with it: Dosage 2000 g/ha.
Assay [8] deals with Digitaria sanguinalis. Nature of the assay: LTP post-emergence greenhouse test. The note with it: Dosage 2000 g/ha.
The test system of assay [9] is Chenopodium album. The assay can be described thus: LTP post-emergence greenhouse test. The note with it: Dosage 2000 g/ha.
Assay [10] has as its system Lolium perenne. Nature of the assay: LTP post-emergence greenhouse test. The note with it: Dosage 2000 g/ha.
The subject of assay [11] is Eragrostis tef. Nature of the assay: LTP post-emergence greenhouse test. The note with it: Dosage 2000 g/ha.
The subject of assay [12] is Sinapis alba. Nature of the assay: LTP post-emergence greenhouse test. The note with it: Dosage 2000 g/ha.
Assay [13] has as its system Arabidopsis thaliana. The assay can be described thus: LTP post-emergence greenhouse test. The note with it: Dosage 2000 g/ha.
Assay [14] concerns Eragrostis teff. The assay can be described thus: HTPS pre-emergence application on monocot model plant. As for the experimental part:
(§1) The plates were placed in a controlled greenhouse in a random order inside a bath which allows flooding irrigation with tap water supplemented with a fertilizer. Applied compounds were dissolved into a final solution of 50% acetone, 49.9% DDW, 0.1% tween-20. A 96 well plate was used as a stock plate for preparing application solutions for 8 repeats. Each row contained different concentrations per chemical. Maximal concentration for application was 1.5 Kg/Ha and dilution factor is 2.5. Chemical application was performed one day after thinning out in a chemical hood. […] applied on first two true leaves in each well using 12 channel pipettes. Data collection: RGB (red, green, blue) data for green area per well was documented using camera. Data is collected at a few time points during the experiment: one day after thinning and before chemical application, two-, six- or nine-days post application. During the last two documentations, visual phenotyping was performed. Data analysis: Given RGB results and visual phenotype scores, a student t-test conducted to compare between treatment and control performance for continuous data (RGB) and Fisher exact test to analyze the non-continuous data (phenotypic scores). Dose-Response curves are generated for each treatment to infer ED50 and max. inhibition parameters, using treatment's log concentration range as the […] and normalized green area. […] Plate imaging performed at 11 and 18 DAA. RGB data for green area per well was documented and used to extract % inhibition. Dose-Response curves were built for each treatment to infer EC50, EC75 and EC90 parameters, using treatment's log concentration range as the independent variable and normalized green area as the dependent variable. Treatments were compared to controls performance given RGB results and using student's t-test (p-val≤0.05). Compounds 104-154 were applied in either or both pre- and post-emergence mode to either or both monocot and dicot model plants, following the methods described above. The compounds were applied as a gradient of concentrations as listed above, from which the ED50 was calculated.

Assay [15] relates to Solanum nigrum. Nature of the assay: LTP post-emergence greenhouse test. The note with it: Dosage 2000 g/ha.
Assay [16] has as its system Lolium multiflorum. Nature of the assay: LTP post-emergence greenhouse test. The note with it: Dosage 2000 g/ha.
Assay [17] concerns Galium aparine. Nature of the assay: LTP post-emergence greenhouse test. The note with it: Dosage 2000 g/ha.
The test system of assay [18] is Arabidopsis thaliana. The assay can be described thus: HTPS pre-emergence application on dicot model plant. As for the experimental part: as §1
Assay [19] deals with Poa annua. Nature of the assay: LTP post-emergence greenhouse test. The note with it: Dosage 2000 g/ha.
Assay [20] relates to monocot and eudicot weeds species. Nature of the assay: In-planta LTP weed panel, overall assessment. The note with it: monocot and eudicot weeds species; both post-emergence and pre-emergence; most of the species tested.
Assay [21] has as its system Matricaria chamomilla. The assay can be described thus: LTP post-emergence greenhouse test. The note with it: Dosage 2000 g/ha.
Where [22] appears, read: dose-response of normalized green area.

The text below walks through data of patent US20230331685A1, “HERBICIDAL COMPOUNDS AND METHODS OF USE THEREOF” (AG Plenus Ltd, priority 2020, published 2023).

Regarding `C[C@@H](O)[C@@H](N)CCCCC(=O)O` [Compound 104, (6S,7R)-6-amino-7-hydroxyoctanoic acid], in assay [1], the “Herbicidal activity (In-planta), LTP-Post emergence, Ambrosia artemisiifolia” value is given as 70-80. Besides, in assay [2], the “Herbicidal activity (In-planta), LTP-Post emergence, Amaranthus tuberculatus” value is recorded as 80. Also, the “Herbicidal activity (In-planta), LTP-Post emergence, Phalaris paradoxa” value in assay [3] was 80. In addition, in assay [4], the “Herbicidal activity (In-planta), LTP-Post emergence, Conyza canadensis” value stood at 95. Moreover, the “Herbicidal activity (In-planta), LTP-Post emergence, Setaria viridis” value in assay [5] is listed as 90-95. The “Herbicidal activity (In-planta), LTP-Post emergence, Echinochloa colon” value in assay [6] is listed as 95. The “Herbicidal activity (In-planta), LTP-Post emergence, Abutilon theophrasti” value in assay [7] is 80. Also, in assay [8], the “Herbicidal activity (In-planta), LTP-Post emergence, Digitaria sanguinalis” value worked out at 95. Moreover, the “Herbicidal activity (In-planta), LTP-Post emergence, Chenopodium album” value in assay [9] came out at 90. Further, the “Herbicidal activity (In-planta), LTP-Post emergence, Lolium perenne” value in [10] is given as 85-90. Further, the “Herbicidal activity (In-planta), LTP-Post emergence, Eragrostis tef” value in assay [11] is reported as 60-100. Further, the “Herbicidal activity (In-planta), LTP-Post emergence, Sinapis alba” value in assay [12] is recorded as 60. Also, in assay [13], the “Herbicidal activity (In-planta), LTP-Post emergence, Arabidopsis thaliana” value came to 60. In addition, the “ED50 (g/ha)” value in assay [14] (setting [22]) was determined as 35 g/ha; in assay [18] (setting [22]), 6 g/ha. In addition, the results for the “Max Inhibition (%)” value in assay [14] (green area (RGB)) and in assay [18] (green area (RGB)) were 100% and 94%, respectively. For the same compound, in [15], the “Herbicidal activity (In-planta), LTP-Post emergence, Solanum nigrum” value is recorded as 80-90. The “Herbicidal activity (In-planta), LTP-Post emergence, Lolium multiflorum” value in assay [16] is reported as 80-90. Besides, in assay [17], the “Herbicidal activity (In-planta), LTP-Post emergence, Galium aparine” value was determined as 70. In assay [19], the “Herbicidal activity (In-planta), LTP-Post emergence, Poa annua” value is listed as 90. In addition, in assay [20], the “control of weeds (in words)” value was “excellent control”. In assay [21], the “Herbicidal activity (In-planta), LTP-Post emergence, Matricaria chamomilla” value was 70-80.
